Target: T1, Full-length glucokinase (beta cell isoform) (Homo sapiens, UniProt P35557)
T1 construct: Full-length glucokinase (beta cell isoform) was His-tagged at N-terminus; His tag (N); made in house
T1 sequence (P35557 1-465): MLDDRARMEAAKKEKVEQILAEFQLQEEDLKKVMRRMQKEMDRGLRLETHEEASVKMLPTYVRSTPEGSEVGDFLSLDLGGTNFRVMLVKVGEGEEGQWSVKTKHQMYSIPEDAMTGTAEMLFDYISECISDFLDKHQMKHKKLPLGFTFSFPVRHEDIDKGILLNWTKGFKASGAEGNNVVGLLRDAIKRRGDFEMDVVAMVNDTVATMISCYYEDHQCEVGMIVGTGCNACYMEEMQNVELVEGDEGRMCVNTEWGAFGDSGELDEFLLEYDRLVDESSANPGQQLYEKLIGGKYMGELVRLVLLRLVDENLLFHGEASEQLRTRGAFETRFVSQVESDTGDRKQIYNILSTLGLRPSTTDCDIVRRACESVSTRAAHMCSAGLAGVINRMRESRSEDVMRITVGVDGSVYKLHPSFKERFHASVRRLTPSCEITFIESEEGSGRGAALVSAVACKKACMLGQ
Assay: Glucokinase biochemical assay (PK/LDH-coupled, NADH depletion at 340 nm): % activation, EC50, % max activation
Conditions: 5 mM glucose; for activation at 10 µM: read-out: % Activation at 10 uM; for EC50: GK activation, read-out: EC50; for Emax: fitted maximum activation, read-out: % Max Activation
Outline: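 Activation expressed as (Va/Vo−1)×100, where initial rates with and without compound come from NADH depletion at 340 nm over 200–900 s. Enzyme is His-tagged human beta-cell GK, full length, run at room temperature in HEPES buffer with 1 mM ATP and 5 mM glucose. DMSO 1%.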

[1] = 10 uM compound, % Activation=(Va/Vo−1)×100

| activation at 10 µM [1] | EC50 | Emax | % Activation at 10 uM [1] | SMILES |
| --- | --- | --- | --- | --- |
| 113% | 0.16 µM | 158% | – | Cc1ccc(NC(=O)c2cc(OC(C)C)cc3oc(-c4ccccc4)cc23)nc1 [Example 347, 6-Isopropoxy-N-(5-methylpyridin-2-yl)-2-phenylbenzofuran-4-carboxamide] |
| 16.6% | – | – | – | Cc1ccc(NC(=O)c2cc(OC(C)C)cc3oc(C(C)C)cc23)nc1 [Example 348, 6-Isopropoxy-2-isopropyl-N-(5-methylpyridin-2-yl)benzofuran-4-carboxamide] |
| 0.9% | – | – | – | Cc1csc2cc(C(=O)Nc3ccn(C)n3)cc(Oc3ccc(S(C)(=O)=O)cc3)c12 [Example 351, 3-Methyl-N-(1-methyl-1H-pyrazol-3-yl)-4-[4-(methylsulfonyl)-phenoxy]-1-benzothiophene-6-carboxamide] |
| 3.4% | – | – | – | Cc1ccc(NC(=O)c2cc(Oc3ccc(C(=O)N(C)C)cc3)c3c(C)csc3c2)nc1 [Example 353, 4-{4-[(Dimethylamino)carbonyl]phenoxy}-3-methyl-N-(5-methylpyridin-2-yl)-1-benzothiophene-6-carboxamide] |
| 3.5% | – | – | – | Cc1csc2cc(C(=O)Nc3ccn(C)n3)cc(O[C@@H](C)Cc3ccccc3)c12 [Example 354, 3-Methyl-4-[(1S)-1-methyl-2-phenylethoxy]-N-(1-methyl-1H-pyrazol-3-yl)-1-benzothiophene-6-carboxamide] |
| 69.9% | 0.19 µM | 70% | – | Cc1ccc(NC(=O)c2cc(Oc3ccc(S(C)(=O)=O)cc3)c3cc(C)sc3c2)nc1 [Example 359, 4-(4-Methanesulfonyl-phenoxy)-2-methyl-benzo[b]thiophene-6-carboxylic acid (5-methyl-pyridin-2-yl)-amide] |
| 4.2% | – | – | – | Cc1ccc(NC(=O)c2cc(Oc3ccc(C(=O)N(C)C)c(F)c3)c3cc(C)sc3c2)nc1 [Example 361, 4-(4-(Dimethylcarbamoyl)-3-fluorophenoxy)-2-methyl-N-(5-methylpyridin-2-yl)benzo[b]thiophene-6-carboxamide] |
| 45.8% | > 10 µM | – | – | Cn1ccc(NC(=O)c2cc(Oc3ccc(S(C)(=O)=O)cc3)c3sccc3c2)n1 [Example 364, 7-(4-(Methylsulfonyl)phenoxy)-N-(1-methyl-1H-pyrazol-3-yl)benzo-[b]-thiophene-5-carboxamide] |
| 4% | – | – | – | Cc1ccc(NC(=O)c2cc(Oc3ccc(C(=O)N(C)C)c(F)c3)c3sccc3c2)nc1 [Example 365, 7-(4-(Dimethylcarbamoyl)-3-fluorophenoxy)-N-(5-methylpyridin-2-yl)benzo[b]thiophene-5-carboxamide] |
| 6.4% | – | – | – | CN(C)C(=O)c1ccc(Oc2cc(C(=O)Nc3ccn(C)n3)cc3ccsc23)cc1F [Example 366, 7-(4-(Dimethylcarbamoyl)-3-fluorophenoxy)-N-(1-methyl-1H-pyrazol-3-yl)benzo[b]thiophene-5-carboxamide] |
| 47% | 5.8 µM | 59% | – | Cc1ccc(NC(=O)c2cc(Oc3ccc(S(C)(=O)=O)cc3)c3ocnc3c2)nc1 [Example 367, N-(5-methylpyridin-2-yl)-7-[4-(methylsulfonyl)phenoxy]-1,3-benzoxazole-5-carboxamide] |
| 66.1% | 3.7 µM | 66% | – | Cc1ccc(NC(=O)c2cc(Oc3ccc(S(C)(=O)=O)cc3)c3oc(C)nc3c2)nc1 [Example 369, 2-Methyl-N-(5-methylpyridin-2-yl)-7-[4-(methylsulfonyl)-phenoxy]-1,3-benzoxazole-5-carboxamide] |
| 29.3% | – | – | – | CS(=O)(=O)c1ccc(Oc2cc(C(=O)Nc3ccccn3)cc3scnc23)cc1 [Example 372, 4-[4-(Methylsulfonyl)phenoxy]-N-pyridin-2-yl-1,3-benzothiazole-6-carboxamide] |

Second part, the compound before the results:

| SMILES | activation at 10 µM [1] | EC50 | Emax | % Activation at 10 uM [1] |
| --- | --- | --- | --- | --- |
| Cc1ccc(NC(=O)c2cc(OC(C)C)cc3occc23)nc1 [Example 344, 6-Isopropoxy-N-(5-methylpyridin-2-yl)benzofuran-4-carboxamide] | 89.5% | 1.4 µM | 106% | – |
| Cc1ccc(NC(=O)c2cc(OC(C)C)cc3oc(Br)cc23)nc1 [Example 345, 2-Bromo-6-isopropoxy-N-(5-methylpyridin-2-yl)benzofuran-4-carboxamide] | 75.6% | 4 µM | 116% | – |
| C=C(C)c1cc2c(C(=O)Nc3ccc(C)cn3)cc(OC(C)C)cc2o1 [Example 346, 6-Isopropoxy-N-(5-methylpyridin-2-yl)-2-(prop-1-en-2-yl)benzofuran-4-carboxamide] | 69.2% | 1.5 µM | 89% | – |
| Cc1ccc(NC(=O)c2cc(OC(C)C)cc3oc(C(=O)N4CCC4)cc23)nc1 [Example 349, 2-(Azetidine-1-carbonyl)-6-isopropoxy-N-(5-methylpyridin-2-yl)benzofuran-4-carboxamide] | -32.1% | – | – | – |
| Cc1ccc(NC(=O)c2cc(Oc3ccc(S(C)(=O)=O)cc3)c3c(C)csc3c2)nc1 [Example 350, 3-Methyl-N-(5-methylpyridin-2-yl)-4-[4-(methylsulfonyl)-phenoxy]-1-benzothiophene-6-carboxamide] | 11.2% | – | – | – |
| Cc1csc2cc(C(=O)Nc3ccn(C)n3)cc(Oc3ccc(C(=O)N(C)C)cc3)c12 [Example 352, 4-{4-[(Dimethylamino)carbonyl]phenoxy}-3-methyl-N-(1-methyl-1H-pyrazol-3-yl)-1-benzothiophene-6-carboxamide] | 12.3% | – | – | – |
| Cc1ccc(NC(=O)c2cc(Oc3ccc(S(C)(=O)=O)cc3)c3ccsc3c2)nc1 [Example 355, 4-(4-Methanesulfonyl-phenoxy)-benzo[b]thiophene-6-carboxylic acid(5-methyl-pyridin-2-yl)-amide] | 114% | 0.52 µM | 110% | – |
| Cn1ccc(NC(=O)c2cc(Oc3ccc(S(C)(=O)=O)cc3)c3ccsc3c2)n1 [Example 356, 4-(4-(Methylsulfonyl)phenoxy)-N-(1-methyl-1H-pyrazol-3-yl)benzo-[b]-thiophene-6-carboxamide] | 77.4% | > 10 µM | – | – |
| CN(C)C(=O)c1ccc(Oc2cc(C(=O)Nc3ccn(C)n3)cc3sccc23)cc1F [Example 357, 4-(4-(Dimethylcarbamoyl)-3-fluorophenoxy)-N-(1-methyl-1H-pyrazol-3-yl)benzo[b]thiophene-6-carboxamide] | 32.7% | – | – | – |
| Cc1ccc(NC(=O)c2cc(Oc3ccc(C(=O)N(C)C)c(F)c3)c3ccsc3c2)nc1 [Example 358, 4-(4-(Dimethylcarbamoyl)-3-fluorophenoxy)-N-(5-methylpyridin-2-yl)benzo[b]thiophene-6-carboxamide] | 50.4% | 0.33 µM | 56% | – |
| Cc1cc2c(Oc3ccc(S(C)(=O)=O)cc3)cc(C(=O)Nc3ccn(C)n3)cc2s1 [Example 360, 4-(4-(Methylsulfonyl)phenoxy)-2-methyl-N-(1-methyl-1H-pyrazol-3-yl)benzo[b]thiophene-6-carboxamide] | 129% | 0.62 µM | 142% | – |
| Cc1cc2c(Oc3ccc(C(=O)N(C)C)c(F)c3)cc(C(=O)Nc3ccn(C)n3)cc2s1 [Example 362, 4-(4-(Dimethylcarbamoyl)-3-fluorophenoxy)-2-methyl-N-(1-methyl-1H-pyrazol-3-yl)benzo[b]thiophene-6-carboxamide] | 25.9% | – | – | – |
| Cc1ccc(NC(=O)c2cc(Oc3ccc(S(C)(=O)=O)cc3)c3sccc3c2)nc1 [Example 363, 7-(4-Methanesulfonyl-phenoxy)-benzo[b]thiophene-5-carboxylic acid(5-methyl-pyridin-2-yl)-amide] | 52.3% | 7.65 µM | 99% | – |
| Cc1nc2cc(C(=O)Nc3ccn(C)n3)cc(Oc3ccc(S(C)(=O)=O)cc3)c2o1 [Example 368, 2-Methyl-N-(1-methyl-1H-pyrazol-3-yl)-7-[4-(methylsulfonyl)-phenoxy]-1,3-benzoxazole-5-carboxamide] | 48.2% | > 10 µM | – | – |
| Cc1ccc(NC(=O)c2cc(Oc3ccc(C(=O)N(C)C)cc3)c3oc(C)nc3c2)nc1 [Example 370, 7-{4-[(Dimethylamino)carbonyl]phenoxy}-2-methyl-N-(5-methylpyridin-2-yl)-1,3-benzoxazole-5-carboxamide] | 14.9% | 0.17 µM | 3.5% | – |
| Cc1ccc(NC(=O)c2cc(Oc3ccc(S(C)(=O)=O)cc3)c3ncsc3c2)nc1 [Example 371, N-(5-Methylpyridin-2-yl)-4-[4-(methylsulfonyl)phenoxy]-1,3-benzothiazole-6-carboxamide] | 35.5% | – | – | – |
| COc1cc(C(=O)Nc2ccc(C)cn2)c2nc(C)[nH]c2c1 [Example 373, 6-Methoxy-2-methyl-1H-benzoimidazole-4-carboxylic acid(5-methyl-pyridin-2-yl)-amide] | -1.1% | – | – | – |
| Cc1ccc(NC(=O)c2cc(OCc3ccccc3Cl)c3c(c2)OC(C)(C)CC3)nc1 [Example 374, 5-(2-Chloro-benzyloxy)-2,2-dimethyl-chroman-7-carboxylic acid(5-methyl-pyridin-2-yl)-amide] | – | – | – | 17.7% |
